Assay [1] relates to vascularization in chorioallantoic membrane (CAM) of chick embryo, rabbit cornea and hamster cheek pouches. Particulars: cited from earlier work.
Assay [2] has as its system angiogenesis of the chick CAM. The assay is described as follows: CAM angiogenesis inhibition, various steroids alone or with DS4152. The format is in vivo. To be noted: for degree of increase: ID50 alone vs. in the presence of 10 ng of DS4152; for ID50, used in combination with DS4152: in the presence of 10 ng of DS4152; for ID50, alone: steroid alone.
In assay [3] the test system is CAM angiogenesis. The assay can be described thus: CAM Angiogenesis Inhibition Test (Direct Method), antiestrogens with or without DS4152. The format is in vivo, chick. Here is the method:
(§1) Using chick embryos, a test was carried out in accordance with the following method, which was a partial modification of the Taylor-Folkman'smethod Nature, 297, 307 (1982)].
(§2) Either DS4152 or heparin dissolved in physiological saline was added to the CAM of each 4-5 day old fertilized chicken 1 egg (species: NORIN CROSS) and then the eggs were incubated at 37° C.
(§3) Two days after the addition of the agent, the degree of the CAM vascularization was compared with that of a control to which physiological saline was only added. The 50% vascularization inhibition dose (ID50) was calculated by the probit method.
(§4) A test was conducted in the same manner as in Example 2. Antiestrogens were separately dissolved or suspended in physiological saline and were added either alone or together with DS4152. The eggs with the agents were incubated at 37° C. Two days after the addition of the agents, the degrees of development of CAM vessels were individually compared with that of a control to which physiological saline was only added.

Assay [4] relates to CAM vascularization of chick embryos. The assay is described as follows: CAM Angiogenesis Inhibition Test (Direct Method). It counts as in vivo, chick (NORIN CROSS). Particulars: even at 100 μg. As for the experimental part: as §1, §2, §3
Another assay has as its system Sarcoma 180 (S180). The assay can be described thus: Antitumor Test, S180, tamoxifen citrate with DS4152 or heparins. The format is in vivo, mouse (male ICR). Here is the method:
(§5) C3H/He male mice (5 weeks old) were each inoculated subcutaneously with 4×10^6 cells of mouse mammary carcinoma MM46. Mice were randomized after measuring the diameters of the resultant tumors on the 7th day. In addition, male ICR mice (5 weeks old) were each inoculated subcutaneously with 1×10^6 cells of Sarcoma 180 (S180). On the 3rd days, the mice were randomized. A saline suspension of tamoxifen citrate was administered once a day for 4 days to the MM46-bearing mice on the 7th day after inoculation and to the S180-bearing mice on the 3rd day after inoculation. DS4152 and heparins were individually dissolved in physiological saline and administered either orally or subcutaneously once a day for 4 days at a dose of 30 mg/kg/day or 300 mg/kg/day. On the 5th day after the beginning of the administration, the animals were sacrificed. The tumor weights were compared with those of the control mice administered only with physiological saline (Table 15).

Assay [5] has as its system CAM angiogenesis. The assay is described as follows: CAM Angiogenesis Inhibition Test (Direct Method), DS4152 and heparins with tamoxifen citrate. It counts as in vivo, chick. Particulars: for 50% vascularization inhibition dose: with tamoxifen citrate 1 μg. Here is the method:
as §1, §2, §3, §4

In the next assay the test system is breast cancer. To be noted: Oncologia, 10, 72 (1984); cited from earlier work.
Assay [6] has as its system CAM vascularization. The assay is described as follows: Antiangiogenic Effects (Ex Vivo) of steroids with or without DS4152. Also noted: species or system chick (blood from male ICR mice). Here is the method:
(§6) Male ICR mice were orally administered with a solution of DS4152 dissolved in physiological saline. A saline suspension of a steroid was administered orally or intramuscularly, either in combination with DS4152 or alone. Blood samples collected after 6 hours were prevented from coagulation with a 0.313% aqueous solution of sodium citrate. Each blood sample was added to the 5 day CAM in the same manner as in the direct method. The inhibitory effects were judged after two days. Results were expressed by inhibition ratios (%) of CAM vascularization of each group to that of control group with a blood sample collected from the mice with saline. (Table 11).

Assay [7] has as its system mouse mammary carcinoma MM46. The assay can be described thus: Antitumor Test, MM46, tamoxifen citrate with DS4152. The format is in vivo, mouse (male C3H/He). Here is the method: as §5
The subject of assay [8] is CAM vascularization. The assay can be described thus: Antiangiogenic Effects (Ex Vivo) of tamoxifen with or without DS4152. The arrangement: species or system chick (blood from mice). To be noted: for Inhibition rate of angiogenesis: tamoxifen citrate 100 mg/kg s.c. As for the experimental part: as §6
In the same manner as in Example 8, antiangiogenic effects of tamoxifen were examined with or without DS4152.

The mark [9] stands for this setting: antiestrogen 1 μg, DS4152 0.01 μg.
Setting [10] is: antiestrogen 10 μg, DS4152 0 μg.
[11] abbreviates: antiestrogen 10 μg, DS4152 0.01 μg.
[12] abbreviates: 300 mg/kg oral + tamoxifen citrate 100 mg/kg s.c.
Setting [13] is: 300 mg/kg oral + tamoxifen citrate 100 mg/kg s.c., p < 0.05.
[14] abbreviates: tamoxifen citrate 100 mg/kg s.c. alone.

“And” between values parts separate entries of the source, which are not always exact repeats. Equal entries are not always repeated. Structures can show the parent of a compound that is named as a salt.

For orientation: T/C means the result in the treated group divided by that in the control group, in per cent.

Take `C[C@]12C=CC(=O)C=C1CC[C@@H]1[C@@H]2[C@@H](O)C[C@@]2(C)[C@H]1CC[C@]2(O)C(=O)CO` [Prednisolone]: in [1], the “suppression of experimentally induced vascularization” value (“suppression” below) is on record as “effective”. For the same molecule, in [2], the degree of increase came to 16.3 times; the “ID50, used in combination with DS4152” value amounted to 0.08 μg/embryo; the “ID50, alone” value turned out to be 1.30 μg/embryo.
In the case of `C[C@H]1C[C@@H]2[C@H]([C@@H](O)C[C@@]3(C)[C@H]2CC[C@]3(O)C(=O)CO)[C@@]2(C)C=CC(=O)C=C12` [6α-Methylprednisolone], in assay [1], the “suppression” value is “effective”. Moreover, in assay [2], the degree of increase is reported as 38.3 times; the “ID50, used in combination with DS4152” value was 0.03 μg/embryo; the “ID50, alone” value came to 1.15 μg/embryo.
For the molecule `COc1ccc2c(c1)CCC(c1ccccc1)=C2c1ccc(OCCN2CCCC2)cc1` [Nafoxidine chloride], the “percent inhibition of CAM vascularization” value (shortened to “percent inhibition”) is reported as -4.3% with CAM angiogenesis [3] (antiestrogen 1 μg, DS4152 0 μg); 23.1% in the assay on CAM angiogenesis [3] (setting [9]); -3.2% with CAM angiogenesis [3] (setting [10]); 31.6% in the assay with CAM angiogenesis [3] (setting [11]).
As to `CC(=O)[C@H]1CC[C@H]2[C@@H]3CCC4=CC(=O)CC[C@]4(C)[C@H]3CC[C@]12C` [Progesterone], in [2], the degree of increase is on record as 2.1 times; the “ID50, used in combination with DS4152” value is reported as 0.49 μg/embryo; the “ID50, alone” value amounted to 1.02 μg/embryo.
`C[C@H]1C[C@H]2[C@@H]3CCC4=CC(=O)C=C[C@]4(C)[C@@]3(F)[C@@H](O)C[C@]2(C)[C@@]1(O)C(=O)CO` [Betamethasone]: in assay [2], the degree of increase amounted to 16.0 times; the “ID50, used in combination with DS4152” value is 0.05 μg/embryo; the “ID50, alone” value worked out at 0.80 μg/embryo.
For `C[C@]12CCC(=O)C=C1CC[C@@H]1[C@@H]2[C@@H](O)C[C@@]2(C)[C@H]1CC[C@]2(O)C(=O)CO` [Hydrocortisone] the same measures were 6.9 times, 0.16 μg/embryo and 1.10 μg/embryo.
On to heparin, for which the “effect on CAM vascularization” value in assay [4] is on record as “no effect”. Also, in the assay on Sarcoma 180 (S180) (setting [12]), the T/C amounted to 66%. Also, the “Tumor weight, mean ± S.D.” value in the assay on Sarcoma 180 (S180) (setting [13]) was found to be 203 ± 13 mg. In addition, the “50% vascularization inhibition dose” value with CAM angiogenesis [5] is 3.43 µg.
For `C[C@@H]1C[C@H]2[C@@H]3CCC4=CC(=O)C=C[C@]4(C)[C@@]3(F)[C@@H](O)C[C@]2(C)[C@@]1(O)C(=O)CO` [dexamethasone], the “suppression” value in assay [1] is “effective”.
Regarding `C[C@@]12CCC[C@H]1[C@@H]1CC[C@H]3CCCC[C@]3(C)[C@H]1CC2` [5α-Androstane], in assay [2], the degree of increase was found to be 8.0 times; the “ID50, used in combination with DS4152” value was 0.29 μg/embryo; the “ID50, alone” value was 2.32 μg/embryo.
For `C[C@]12CC[C@@H]3c4ccc(O)cc4CC[C@H]3[C@@H]1CC[C@@H]2O` [17β-Estradiol] the same measures were 7.0 times, 0.28 μg/embryo and 1.96 μg/embryo.
`CCN(CC)CCOc1ccc(C(=C(Cl)c2ccccc2)c2ccccc2)cc1` [Clomiphene citrate]: the “percent inhibition” value in the assay on CAM angiogenesis [3] (antiestrogen 1 μg, DS4152 0 μg) is -3.9%; in the assay with CAM angiogenesis [3] (setting [9]), 32.6%; with CAM angiogenesis [3] (setting [10]) it was -11.4%; in the assay with CAM angiogenesis [3] (setting [11]), 42.0%.
On to low molecular weight heparin, for which, in the assay on Sarcoma 180 (S180) (setting [12]), the T/C is 66%. In the assay on Sarcoma 180 (S180) (setting [13]), the “Tumor weight, mean ± S.D.” value stood at 202 ± 22 mg. For the same molecule, the “50% vascularization inhibition dose” value in the assay with CAM angiogenesis [5] amounted to 1.37 µg.
With `CCC(=O)O[C@H]1CC[C@H]2[C@@H]3CCC4=CC(=O)CC[C@]4(C)[C@H]3CC[C@]12C` [testosterone propionate], the “effectivity (anti-breast cancer)” value with breast cancer is given as 20-30%.
`C[C@]12C[C@H]3S[C@H]3C[C@@H]1CC[C@@H]1[C@@H]2CC[C@]2(C)[C@@H](O)CC[C@@H]12` [Epithiostanol]: the “Inhibition rate of angiogenesis” value in the assay with CAM vascularization [6] (steroid i.m. 5 mg/kg, DS4152 0) is 4.0%; in the assay on CAM vascularization [6] (steroid i.m. 5 mg/kg, DS4152 30 mg/kg p.o.) it was 5.2%; with CAM vascularization [6] (steroid i.m. 50 mg/kg, DS4152 0), 13.4%; with CAM vascularization [6] (steroid i.m. 50 mg/kg, DS4152 30 mg/kg p.o.), 23.4%; in the assay with CAM vascularization [6] (steroid i.m. 100 mg/kg, DS4152 0), 24.2%; in the assay on CAM vascularization [6] (steroid i.m. 100 mg/kg, DS4152 30 mg/kg p.o.), 37.6%.
Regarding `CC(=O)O[C@]1(C(C)=O)CC[C@H]2[C@@H]3C[C@H](C)C4=CC(=O)CC[C@]4(C)[C@H]3CC[C@@]21C` [Medroxyprogesterone acetate], in assay [2], the degree of increase came to 2.7 times; the “ID50, used in combination with DS4152” value came to 0.42 μg/embryo; the “ID50, alone” value was 1.12 μg/embryo.
For the molecule `C[C@]1(O)CC[C@H]2[C@@H]3CCC4=CC(=O)CC[C@]4(C)[C@@]3(F)[C@@H](O)C[C@@]21C` [Fluoxymesterone], the “effectivity (anti-breast cancer)” value with breast cancer was 20-30%. Further, in [2], the degree of increase is 10.3 times; the “ID50, used in combination with DS4152” value is reported as 0.12 μg/embryo; the “ID50, alone” value was 1.24 μg/embryo.
Take `CC/C(=C(\c1ccccc1)c1ccc(OCCN(C)C)cc1)c1ccccc1` [Tamoxifen citrate]: the “effect on growth of sarcoma S180” value in the assay on Sarcoma 180 (S180) (administered alone) is on record as “did not affect the growth”. For the same molecule, the T/C in the assay with Sarcoma 180 (S180) (setting [14]) came to 97%; in assay [7] (setting [14]), 6.6%. Besides, the “Tumor weight, mean ± S.D.” value in the assay on Sarcoma 180 (S180) (setting [14]) is reported as 298 ± 31 mg; in [7] (tamoxifen citrate 100 mg/kg s.c. alone, p < 0.05), 273 ± 27 mg. Further, the “percent inhibition” value with CAM angiogenesis [3] (antiestrogen 1 μg, DS4152 0 μg) is recorded as -0.4%; in the assay on CAM angiogenesis [3] (setting [9]), 56.2%; in the assay with CAM angiogenesis [3] (setting [10]) it was 2.9%; in the assay with CAM angiogenesis [3] (setting [11]) it was 70.5%. Also, in the assay on CAM angiogenesis [5] (1 μg, alone), the effect on vascularization entry is given as “too little to affect the vascularization”. For the same molecule, in [7] (single administration (alone)), the “effect on growth of mammary carcinoma MM46” value is recorded as “inhibited”. Moreover, the “Inhibition rate of angiogenesis” value in the assay with CAM vascularization [8] (DS4152 0) is -6.1% and -11.0%; with CAM vascularization [8] (DS4152 30 mg/kg oral), 40.0%; in the assay with CAM vascularization [8] (DS4152 30 mg/kg subcutaneous) it was 61.2%. The “influence on vascularization of CAM” value with CAM vascularization [8] (tamoxifen citrate only) is recorded as “no influence”. Besides, the “inhibition of CAM vascularization” value with CAM vascularization [8] (tamoxifen with subcutaneous or oral DS4152 (30 mg/kg)) is “inhibited markedly the CAM vascularization”.
Take `C[C@]12CC[C@@H](O)C[C@H]1CC[C@@H]1[C@@H]2CC[C@@]2(C)[C@H]1CC[C@]2(O)C(=O)CO` [Tetrahydro S]: the degree of increase in assay [2] worked out at 100.0 times. In [2], the “ID50, used in combination with DS4152” value turned out to be 0.01 μg/embryo. Also, the “ID50, alone” value in assay [2] is reported as 1.00 μg/embryo. For the same molecule, the “Inhibition rate of angiogenesis” value is on record as -2.6% in the assay on CAM vascularization [6] (steroid p.o. 1 mg/kg, DS4152 0); 71.7% in the assay with CAM vascularization [6] (steroid p.o. 1 mg/kg, DS4152 30 mg/kg p.o.); -17.3% in the assay with CAM vascularization [6] (steroid p.o. 5 mg/kg, DS4152 0); 80.7% in the assay on CAM vascularization [6] (steroid p.o. 5 mg/kg, DS4152 30 mg/kg p.o.).

Values taken from US4900815A, “Sulfated polysaccharide DS4152” (Daiichi Seiyaku Co., Ltd., priority 1986, dated 1990).
